Experimental data reported in patent US20240352000A1, “NOVEL PYRIMIDINE-2,4-DIAMINE DERIVATIVES, PREPARATION METHOD THEREFOR, AND PHARMACEUTICAL COMPOSITION CONTAINING SAME AS ACTIVE INGREDIENT FOR PREVENTION OR TREATMENT OF CANCER” (KOREA RESEARCH INSTITUTE OF CHEMICAL TECHNOLOGY, priority 2021, published 2024).

Experiments:
[1] = tested on: Ba/F3 EGFR L858R; assay: CellTiter-Glo cell viability, Ba/F3 EGFR L858R; assay type: cell-based; conditions: 72 hours
Method: (§1) An experiment to measure the activity of the compounds of the present invention against the mutant Ba/F3 EGFR cell line was performed as follows using the CellTiter-Glo system sold by Promega. The CellTiter-Glo assay is a method to confirm the cell viability by measuring ATP present in cells in cell culture. The Ba/F3 EGFR L858R, Ba/F3 EGFR L858R/T790M, Ba/F3 EGFR L858R/T790M/C797S mutant cell line was used. The Ba/F3 EGFR L858R, Ba/F3 EGFR L858R/T790M, and Ba/F3 EGFR L858R/T790M/C797S mutant cell lines was cultured in RPMI containing 10% FBS and 1% penicillin-streptomycin with 1 μg of puromycin in an incubator at 37° C. and 5% CO2.
(§2) Analysis of the inhibitory ability effect of the compounds against EGFR was conducted according to the following analysis reaction recipe.
(§3) 2500 cells/90 μl were passaged and cultured in a 96-well cell culture plate, and after 24 hours, treated with the compound represented by Formula 1 at a concentration of 0, 0.01, 0.03, 0.1, 0.3, 1, 3, and 10 (μM). After reaction for 72 hours, the plate treated with the compound was left at room temperature for 30 minutes, then further treated with 100 μl of reagent, and shaken at room temperature for 10 minutes. Finally, the ratio of fluorescence values at 570 nm was obtained using the equipment to quantitatively measure and confirmed the inhibitory ability of the compounds. The measurement values measured at eight compound concentrations were analyzed using the Prism program (version 5.01, Graphpad Software, Inc.), and the IC50 value, which is an indicator of the inhibitory ability of the compound, was calculated.

[2] = tested on: Ba/F3 EGFR del19/T790M/C797S; assay: CellTiter-Glo cell viability, Ba/F3 EGFR del19/T790M/C797S; assay type: cell-based; conditions: 72 hours
Method: (§4) An experiment to measure the activity of the compounds of the present invention against the mutant Ba/F3 EGFR cell line was performed as follows using the CellTiter-Glo system sold by Promega. The CellTiter-Glo assay is a method to confirm the cell viability by measuring ATP present in cells in cell culture. For the Ba/F3 EGFR del19, Ba/F3 EGFR del19/T790M, Ba/F3 del19/T790M/C797S mutant cell line, a cell line provided by Crown Bioscience was purchased and used. The Ba/F3 EGFR del19, Ba/F3 EGFR del19/T790M, Ba/F3 del19/T790M/C797S mutant cell line was cultured in RPMI containing 10% FBS and 1% penicillin-streptomycin with 1 μg of puromycin in an incubator at 37° C. and 5% CO2.
as §2
as §3, with “cells/90 μL” for “cells/90 μl”

[3] = tested on: Ba/F3 EGFR V769_D770insASV; assay: CellTiter-Glo cell growth, Ba/F3 EGFR Ex20 insertion mutant; assay type: cell-based; conditions: 72 hours
Method: as §4, with “the” for “the mutant”, “EGFR V769_D770insASV mutant” for “EGFR”, “EGFR V769_D770insASV” for “EGFR del19, Ba/F3 EGFR del19/T790M, Ba/F3 del19/T790M/C797S”, “1 μg/ml” for “1 μg”
Analysis of the inhibitory ability effect of the compounds against the EGFR mutant cell growth was conducted according to the following analysis reaction recipe.
as §3, with “1000 cells/100 μL were passaged” for “2500 cells/90 μl were passaged”, “[…]. After reaction” for “and 10 (μM). After reaction”, “with 100 μL of reagent,” for “with 100 μl of reagent,”, “confirmed the cell growth inhibitory ability” for “confirmed the inhibitory ability”, “of the cell growth inhibitory ability” for “of the inhibitory ability”

[4] = tested on: Ba/F3 EGFR L858R/T790M/C797S; assay: CellTiter-Glo cell viability, Ba/F3 EGFR L858R/T790M/C797S; assay type: cell-based; conditions: 72 hours
Method: as §1, §2, §3

[5] = molecular target: HER2 A775_G776insYVMA (Homo sapiens (Human), UniProt P04626, INS775YVMA); assay: HTRF enzyme assay, HER2 mutant enzyme; assay type: biochemical; conditions: recombinant enzyme, 37° C. 2 hours
Sequence of HER2 A775_G776insYVMA (P04626 other isoform, or with tags, fused parts or gaps del 1-675/ins YVMA behind 775 limits assumed): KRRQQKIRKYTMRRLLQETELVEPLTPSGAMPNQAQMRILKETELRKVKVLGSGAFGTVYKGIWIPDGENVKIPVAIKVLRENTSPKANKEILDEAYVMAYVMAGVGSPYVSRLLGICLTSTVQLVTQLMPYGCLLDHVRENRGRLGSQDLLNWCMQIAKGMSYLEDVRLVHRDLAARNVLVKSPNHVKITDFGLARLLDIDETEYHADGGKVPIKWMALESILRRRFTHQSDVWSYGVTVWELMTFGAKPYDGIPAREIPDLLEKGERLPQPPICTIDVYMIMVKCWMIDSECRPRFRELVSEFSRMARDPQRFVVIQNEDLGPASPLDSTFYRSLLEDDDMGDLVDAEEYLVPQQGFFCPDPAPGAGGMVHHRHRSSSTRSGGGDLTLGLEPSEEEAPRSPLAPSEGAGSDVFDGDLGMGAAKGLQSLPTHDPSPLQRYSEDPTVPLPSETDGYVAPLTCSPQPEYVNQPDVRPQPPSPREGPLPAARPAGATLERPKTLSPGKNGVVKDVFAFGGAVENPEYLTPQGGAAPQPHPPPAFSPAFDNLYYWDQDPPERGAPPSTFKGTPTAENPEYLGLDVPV
Method: An experiment to measure the activity of the compounds of the present invention against HER mutant enzymes was performed as follows using the HTRF system sold by Cisbio. For the HER2 mutant enzyme, HER2 A775_G776insYVMA mutant enzyme, a recombinant protein provided by Carna Biosciences was purchased and used.
(§5) The composition of the assay buffer used for measuring the activity was 50 mM Tris-HCl pH 7.5, 100 mM NaCl, 7.5 mM MgCl2, 3 mM KCl, 0.01% Tween 20, 0.1% BSA, and 1 mM DTT. Here, an enzyme reaction was performed using with ATP at a concentration of […] and a peptide substrate labeled biotin at a concentration of […]. Analysis of the inhibitory effect of the compounds against the HER2 A775_G776insYVMA mutant activity was conducted according to the following analysis reaction recipe. • Component 1: 4 μL of a HER2 A775_G776insYVMA mutant enzyme • Component 2: 2 μL of a compound solution • Component 3: 4 μL of ATP and a peptide labeled with biotin
(§6) The enzyme reaction was started by first mixing Component 1 and Component 2 and then adding Component 3. After reaction at 37° C. for 2 hours, […] of measurement solution consisting of streptavidin-XL665 and europium-labeled anti-phosphotyrosine antibody provided by Cisbio was added to the enzyme reaction solution and reacted at room temperature for 1 hour. Finally, the ratio of fluorescence values at 615 nm and 665 nm was obtained using the Envision equipment from Perkin-Elmer to quantitatively measure the enzyme activity and confirmed the inhibitory ability of the compounds. The measurement values measured at seven compound concentrations were analyzed using the Prism program (version 5.01, Graphpad Software, Inc.), and the IC50 value, which is an indicator of the inhibitory ability of the compound, was calculated.

[6] = tested on: Ba/F3 EGFR del19; assay: CellTiter-Glo cell viability, Ba/F3 EGFR del19; assay type: cell-based; conditions: 72 hours
Method: as §4, §2
as §3, with “cells/90 μL” for “cells/90 μl”

[7] = tested on: Ba/F3 EGFR L858R/T790M; assay: CellTiter-Glo cell viability, Ba/F3 EGFR L858R/T790M; assay type: cell-based; conditions: 72 hours
Method: as §1, §2, §3

[8] = molecular target: EGFR A763_Y764insFHEA (Homo sapiens (Human), UniProt P00533, INS763FHEA); assay: HTRF enzyme assay, EGFR Ex20 insertion mutant enzyme; assay type: biochemical; conditions: recombinant enzyme, 37° C. 2 hours
Sequence of EGFR A763_Y764insFHEA (P00533 other isoform, or with tags, fused parts or gaps del 1-694/ins FHEA behind 763 limits assumed): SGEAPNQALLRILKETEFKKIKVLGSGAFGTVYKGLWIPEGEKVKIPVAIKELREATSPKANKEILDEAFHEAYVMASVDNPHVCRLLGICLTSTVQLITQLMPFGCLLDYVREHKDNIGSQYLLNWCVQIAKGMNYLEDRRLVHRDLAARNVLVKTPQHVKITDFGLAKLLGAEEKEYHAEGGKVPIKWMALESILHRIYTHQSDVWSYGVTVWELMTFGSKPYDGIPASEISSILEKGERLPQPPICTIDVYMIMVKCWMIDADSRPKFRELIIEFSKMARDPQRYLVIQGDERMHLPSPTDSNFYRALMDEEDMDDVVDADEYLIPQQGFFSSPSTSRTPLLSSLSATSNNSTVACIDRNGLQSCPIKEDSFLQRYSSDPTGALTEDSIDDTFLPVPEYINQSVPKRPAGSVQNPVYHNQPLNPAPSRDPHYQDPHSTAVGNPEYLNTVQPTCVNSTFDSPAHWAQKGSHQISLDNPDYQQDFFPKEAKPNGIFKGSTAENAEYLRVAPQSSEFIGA
Method: An experiment to measure the activity of the compounds of the present invention against EGFR mutant enzymes was performed as follows using the HTRF system sold by Cisbio. For the EGFR mutant enzyme, EGFR A763_Y764insFHEA enzyme, a recombinant protein provided by SignalChem was purchased and used.
as §5, with “performed using ATP at” for “performed using with ATP at”, “substrate labeled with biotin at” for “substrate labeled biotin at”, “against the EGFR activity was” for “against the HER2 A775_G776insYVMA mutant activity was”, “μL of an EGFR mutant enzyme” for “μL of a HER2 A775_G776insYVMA mutant enzyme”
as §6

[9] = tested on: Ba/F3 EGFR del19/T790M; assay: CellTiter-Glo cell viability, Ba/F3 EGFR del19/T790M; assay type: cell-based; conditions: 72 hours
Method: as §4, §2
as §3, with “cells/90 μL” for “cells/90 μl”

SMILES | IC50 [1] | IC50 [2] | IC50 [3] | IC50 [4] | IC50 [5] | IC50 [6] | IC50 [7] | IC50 [8] | IC50 [9]
CCC(=O)N1CCc2cccc(Nc3nc(Nc4ccc(N5CCC(N6CCN(C)CC6)CC5)cc4OC)ncc3Cl)c21 [Example 14, 1-(7-((5-chloro-2-((2-methoxy-4-(4-(4-methylpiperazin-1-yl)piperidin-1-yl)phenyl)amino)pyrimidin-4-yl)amino)indolin-1-yl)propan-1-one] | > 100 nM | > 100 nM | > 100 nM | > 100 nM | > 100 nM | < 100 nM | > 100 nM | > 100 nM | > 100 nM
CCC(=O)N1CCCc2cccc(Nc3nc(Nc4ccc(N5CCC(N6CCN(C)CC6)CC5)cc4OC)ncc3Cl)c21 [Example 16, 1-(8-((5-chloro-2-((2-methoxy-4-(4-(4-methylpiperazin-1-yl)piperidin-1-yl)phenyl)amino)pyrimidin-4-yl)amino)-3,4-dihydroquinolin-1(2H)-yl)propan-1-one] | > 100 nM | > 100 nM | > 100 nM | > 100 nM | > 100 nM | > 100 nM | > 100 nM | > 100 nM | > 100 nM
COc1cc(N2CCC(N3CCN(C)CC3)CC2)ccc1Nc1ncc(Cl)c(Nc2cccc3c2N(C(C)=O)CC3)n1 [Example 12, 1-(7-((5-chloro-2-((2-methoxy-4-(4-(4-methylpiperazin-1-yl)piperidin-1-yl)phenyl)amino)pyrimidin-4-yl)amino)indolin-1-yl)ethan-1-one] | > 100 nM | > 100 nM | > 100 nM | > 100 nM | 25 nM | < 100 nM | > 100 nM | 178 nM | > 100 nM

Further lines, results first:

IC50 [1] | IC50 [2] | IC50 [3] | IC50 [4] | IC50 [5] | IC50 [6] | IC50 [7] | IC50 [8] | IC50 [9] | SMILES
> 100 nM | > 100 nM | > 100 nM | > 100 nM | 26 nM | < 100 nM | > 100 nM | 91 nM | > 100 nM | CCS(=O)(=O)N1CCc2cccc(Nc3nc(Nc4ccc(N5CCC(N6CCN(C)CC6)CC5)cc4OC)ncc3Cl)c21 [Example 13, 5-chloro-N4-(1-(ethylsulfonyl)indolin-7-yl)-N2-(2-methoxy-4-(4-(4-methylpiperazin-1-yl)piperidin-1-yl)phenyl)pyrimidine-2,4-diamine]
< 100 nM | > 100 nM | > 100 nM | > 100 nM | 4 nM | < 100 nM | > 100 nM | 20 nM | < 100 nM | COc1cc(N2CCC(N3CCNCC3)CC2)ccc1Nc1ncc(Cl)c(Nc2cccc3c2N(S(C)(=O)=O)CC3)n1 [Example 17, 5-chloro-N2-(2-methoxy-4-(4-(piperazin-1-yl)piperidin-1-yl)phenyl)-N4-(1-(methylsulfonyl)indolin-7-yl)pyrimidine-2,4-diamine]
> 100 nM | > 100 nM | > 100 nM | > 100 nM | 589 nM | > 100 nM | > 100 nM | > 100 nM | > 100 nM | COc1cc(N2CCC(N3CCN(C)CC3)CC2)ccc1Nc1ncc(Cl)c(Nc2cccc3c2N(C(C)=O)CCC3)n1 [Example 15, 1-(8-((5-chloro-2-((2-methoxy-4-(4-(4-methylpiperazin-1-yl)piperidin-1-yl)phenyl)amino)pyrimidin-4-yl)amino)-3,4-dihydroquinolin-1(2H)-yl)ethan-1-one]
